Reference: patent publication US9296723B2, “NAMPT inhibitors” (AbbVie Inc., priority 2012, dated 2016)

Tests used:
NAMPT = NAMPT (Homo sapiens, UniProt P43490); assay: Time-Resolved Fluorescence Resonance Energy Transfer (TR-FRET) Binding Assay of NAMPT; details: 6.8 nM NAMPT, 200 nM probe, equilibrated 3 hours, no substrates
Procedure: Determination of the utility of compounds having Formula (I) as binders to and inhibitors of NAMPT was performed using Time-Resolved Fluorescence Resonance Energy Transfer (TR-FRET) binding assays.
Time-Resolved Fluorescence Resonance Energy Transfer (TR-FRET) Binding Assay of NAMPT
Six L were transferred to 384-well low-volume plates ([…] #3673). To this, 12 L of a 1.5× solution containing enzyme, probe and antibody were added. […] Reactions were equilibrated at room temperature for 3 hours prior to reading on an Envision multi-label plate reader (Perkin Elmer; Ex=337 nm, Em=520 and 495 nm). Time-resolved FRET ratios (Em520/Em495) were normalized to controls, plotted as a function of compound concentration and fit with the four-parameter logistic equation to determine IC50s.

PC3 cells = assay: NAMPT Cell Proliferation Assay (Cell Titer Glo); type: cell-based; details: Homo sapiens, PC-3, 120 h, incubated 5 days, cell viability
Procedure: NAMPT Cell Proliferation Assay
PC3 cells were seeded in 96-well black plates (Corning #3904) at 500 cells/well in 90 µl of RPMI media containing 10% heat-inactivated FBS and incubated overnight at 37° C. and 5% CO2 to allow cells to attach to wells. The following day, test compounds were serially diluted in neat DMSO to 1000× final concentrations prior to dilution with RPMI media to 10× and 1% DMSO. Ten L of the 10× compounds were then transferred to wells containing cells to produce a dose response of 10-fold dilutions from […]. Cells were incubated for 5 days at 37° C. and 5% CO2, then cell viability was measured using Cell Titer Glo reagent (Promega #G7571). Percent inhibition values were calculated and fitted to a sigmoidal dose response curves using Assay Explorer software to determine IC50s.

Sequence of NAMPT (P43490 whole entry): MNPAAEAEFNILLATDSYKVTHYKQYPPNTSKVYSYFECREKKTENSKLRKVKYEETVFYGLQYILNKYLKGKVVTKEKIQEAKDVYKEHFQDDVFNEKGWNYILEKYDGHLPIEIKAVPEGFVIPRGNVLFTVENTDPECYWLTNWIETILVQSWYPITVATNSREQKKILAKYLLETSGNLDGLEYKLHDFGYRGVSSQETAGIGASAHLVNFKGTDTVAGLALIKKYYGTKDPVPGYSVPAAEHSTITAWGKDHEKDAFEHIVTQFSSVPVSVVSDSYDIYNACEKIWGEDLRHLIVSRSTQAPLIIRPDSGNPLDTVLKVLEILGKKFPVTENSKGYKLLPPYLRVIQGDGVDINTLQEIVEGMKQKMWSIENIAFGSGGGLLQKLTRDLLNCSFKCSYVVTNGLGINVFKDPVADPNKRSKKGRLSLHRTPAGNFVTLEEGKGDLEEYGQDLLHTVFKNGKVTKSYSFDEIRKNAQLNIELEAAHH

Row | SMILES | IC50 (NAMPT) [nM] | IC50 (PC3 cells) [nM]
1 | O=C(Nc1ccc(C2CN(CC3CCOC3)C2)cc1)N1CC(c2cccnc2)C1 (stereo not drawn) [Example 256, 3-(pyridin-3-yl)-N-{4-[1-(tetrahydrofuran-3-ylmethyl)azetidin-3-yl]phenyl}azetidine-1-carboxamide] | 830 | –
2 | O=C(Nc1ccc(C2CCN(C(=O)C3CC3)CC2)cc1)N1CC(c2cccnn2)C1 [Example 340, N-{4-[1-(cyclopropylcarbonyl)piperidin-4-yl]phenyl}-3-(pyridazin-3-yl)azetidine-1-carboxamide] | – | 2450
3 | CC(=O)N1CCC(c2ccc(NC(=O)N3CC(c4cccnn4)C3)cc2)CC1 [Example 341, N-[4-(1-acetylpiperidin-4-yl)phenyl]-3-(pyridazin-3-yl)azetidine-1-carboxamide] | – | 8940
4 | O=C(Nc1ccc(C2CCN(C(=O)C3CCC3)CC2)cc1)N1CC(c2cccnn2)C1 [Example 343, N-{4-[1-(cyclobutylcarbonyl)piperidin-4-yl]phenyl}-3-(pyridazin-3-yl)azetidine-1-carboxamide] | – | 831
5 | O=C(CCC(F)(F)F)N1CCC(c2ccc(NC(=O)N3CC(c4cccnn4)C3)cc2)CC1 [Example 344, 3-(pyridazin-3-yl)-N-{4-[1-(4,4,4-trifluorobutanoyl)piperidin-4-yl]phenyl}azetidine-1-carboxamide] | – | 7670
6 | O=C(CC(F)(F)F)N1CCC(c2ccc(NC(=O)N3CC(c4cccnn4)C3)cc2)CC1 [Example 345, 3-(pyridazin-3-yl)-N-{4-[1-(3,3,3-trifluoropropanoyl)piperidin-4-yl]phenyl}azetidine-1-carboxamide] | – | 1130
7 | CC1(C(=O)N2CCC(c3ccc(NC(=O)N4CC(c5cccnn5)C4)cc3)CC2)CC1 [Example 346, N-(4-{1-[(1-methylcyclopropyl)carbonyl]piperidin-4-yl}phenyl)-3-(pyridazin-3-yl)azetidine-1-carboxamide] | – | 843
8 | O=C(CC1CC1)N1CCC(c2ccc(NC(=O)N3CC(c4cccnn4)C3)cc2)CC1 [Example 347, N-{4-[1-(cyclopropylacetyl)piperidin-4-yl]phenyl}-3-(pyridazin-3-yl)azetidine-1-carboxamide] | – | 1550
9 | O=C(Nc1ccc(CC2CCN(C(=O)c3ccccc3)CC2)cc1)N1CC(c2cccnn2)C1 [Example 348, N-{4-[(1-benzoylpiperidin-4-yl)methyl]phenyl}-3-(pyridazin-3-yl)azetidine-1-carboxamide] | – | 803
10 | O=C(Nc1ccc(CC2CCN(C(=O)c3ccccc3F)CC2)cc1)N1CC(c2cccnn2)C1 [Example 349, N-(4-{[1-(2-fluorobenzoyl)piperidin-4-yl]methyl}phenyl)-3-(pyridazin-3-yl)azetidine-1-carboxamide] | – | 772
11 | CC(C)(C)C(=O)N1CCC(Cc2ccc(NC(=O)N3CC(c4cccnn4)C3)cc2)CC1 [Example 350, N-(4-{[1-(2,2-dimethylpropanoyl)piperidin-4-yl]methyl}phenyl)-3-(pyridazin-3-yl)azetidine-1-carboxamide] | – | 743
12 | CC(C)C(=O)N1CCC(Cc2ccc(NC(=O)N3CC(c4cccnn4)C3)cc2)CC1 [Example 354, N-(4-{[1-(2-methylpropanoyl)piperidin-4-yl]methyl}phenyl)-3-(pyridazin-3-yl)azetidine-1-carboxamide] | – | 994
13 | CC(=O)N1CCC(Cc2ccc(NC(=O)N3CC(c4cccnn4)C3)cc2)CC1 [Example 355, N-{4-[(1-acetylpiperidin-4-yl)methyl]phenyl}-3-(pyridazin-3-yl)azetidine-1-carboxamide] | – | 7310
14 | CC[C@H](C)C(=O)N1CCC(Cc2ccc(NC(=O)N3CC(c4cccnn4)C3)cc2)CC1 [Example 356, N-[4-({1-[(2S)-2-methylbutanoyl]piperidin-4-yl}methyl)phenyl]-3-(pyridazin-3-yl)azetidine-1-carboxamide] | – | 791
15 | CC1(C(=O)N2CCC(Cc3ccc(NC(=O)N4CC(c5cccnn5)C4)cc3)CC2)CC1 [Example 357, N-[4-({1-[(1-methylcyclopropyl)carbonyl]piperidin-4-yl}methyl)phenyl]-3-(pyridazin-3-yl)azetidine-1-carboxamide] | – | 703

Further compounds by falling IC50 (PC3 cells), results first:

Row | IC50 (NAMPT) [nM] | IC50 (PC3 cells) [nM] | SMILES
16 | – | 668 | CC(C)(C)C(=O)N1CCC(c2ccc(NC(=O)N3CC(c4cccnn4)C3)cc2)CC1 [Example 339, N-{4-[1-(2,2-dimethylpropanoyl)piperidin-4-yl]phenyl}-3-(pyridazin-3-yl)azetidine-1-carboxamide]
17 | – | 655 | CC(C)(C)CC(=O)N1CCC(Cc2ccc(NC(=O)N3CC(c4cccnn4)C3)cc2)CC1 [Example 351, N-(4-{[1-(3,3-dimethylbutanoyl)piperidin-4-yl]methyl}phenyl)-3-(pyridazin-3-yl)azetidine-1-carboxamide]
18 | – | 639 | O=C(Nc1ccc(C2CCN(C(=O)[C@H]3CCOC3)CC2)cc1)N1CC(c2cnccc2Cl)C1 [Example 160, 3-(4-chloropyridin-3-yl)-N-(4-{1-[(3S)-tetrahydrofuran-3-ylcarbonyl]piperidin-4-yl}phenyl)azetidine-1-carboxamide]
19 | – | 607 | CCC(CC)C(=O)N1CCC(Cc2ccc(NC(=O)N3CC(c4cccnn4)C3)cc2)CC1 [Example 352, N-(4-{[1-(2-ethylbutanoyl)piperidin-4-yl]methyl}phenyl)-3-(pyridazin-3-yl)azetidine-1-carboxamide]
20 | – | 587 | Cc1ccccc1C(=O)N1CCC(c2ccc(NC(=O)N3CC(c4cccnn4)C3)cc2)CC1 [Example 338, N-{4-[1-(2-methylbenzoyl)piperidin-4-yl]phenyl}-3-(pyridazin-3-yl)azetidine-1-carboxamide]
21 | – | 390 | CC(C)(C)CC(=O)N1CCC(c2ccc(NC(=O)N3CC(c4cccnn4)C3)cc2)CC1 [Example 342, N-{4-[1-(3,3-dimethylbutanoyl)piperidin-4-yl]phenyl}-3-(pyridazin-3-yl)azetidine-1-carboxamide]
22 | – | 222 | O=C(Nc1ccc(C2CCN(C(=O)c3ccccc3)CC2)cc1)N1CC(c2cccnn2)C1 [Example 336, N-[4-(1-benzoylpiperidin-4-yl)phenyl]-3-(pyridazin-3-yl)azetidine-1-carboxamide]
23 | 206 | 95.8 | COCC(=O)N1CCC(Oc2ccc(NC(=O)N3CC(c4cccnc4)C3)cc2)CC1 [Example 48, N-(4-{[1-(methoxyacetyl)piperidin-4-yl]oxy}phenyl)-3-(pyridin-3-yl)azetidine-1-carboxamide]
24 | – | 74.5 | O=C(Nc1ccc(C2CCN(C(=O)[C@H]3CCOC3)CC2)cc1)N1CC(c2cccnc2)C1 [Example 159, 3-(pyridin-3-yl)-N-(4-{1-[(3S)-tetrahydrofuran-3-ylcarbonyl]piperidin-4-yl}phenyl)azetidine-1-carboxamide]
25 | 27.3 | 59.5 | Cn1cccc1C(=O)N1CCC(Oc2ccc(NC(=O)N3CC(c4cccnc4)C3)cc2)CC1 [Example 36, N-[4-({1-[(1-methyl-1H-pyrrol-2-yl)carbonyl]piperidin-4-yl}oxy)phenyl]-3-(pyridin-3-yl)azetidine-1-carboxamide]
26 | 117 | 58.9 | O=C(Nc1ccc(C2CCN(C(=O)[C@H]3CCCO3)CC2)cc1)N1CC(c2cccnc2)C1 [Example 54, 3-(pyridin-3-yl)-N-(4-{1-[(2R)-tetrahydrofuran-2-ylcarbonyl]piperidin-4-yl}phenyl)azetidine-1-carboxamide]
27 | – | 55.5 | O=C(Nc1ccc(C2CCN(C(=O)c3ccccc3F)CC2)cc1)N1CC(c2cccnn2)C1 [Example 337, N-{4-[1-(2-fluorobenzoyl)piperidin-4-yl]phenyl}-3-(pyridazin-3-yl)azetidine-1-carboxamide]
28 | 56.8 | 28.3 | O=C(Nc1ccc(OC2CCN(C(=O)[C@H]3CCCO3)CC2)cc1)N1CC(c2cccnc2)C1 [Example 5, 3-(pyridin-3-yl)-N-[4-({1-[(2R)-tetrahydrofuran-2-ylcarbonyl]piperidin-4-yl}oxy)phenyl]azetidine-1-carboxamide]
29 | – | 13.8 | O=C(Nc1ccc(C2CCN(C(=O)C3CCOC3)CC2)cc1)N1CC(c2cccnc2)C1 (stereo not drawn) [Example 53, 3-(pyridin-3-yl)-N-{4-[1-(tetrahydrofuran-3-ylcarbonyl)piperidin-4-yl]phenyl}azetidine-1-carboxamide]
30 | 15.6 | 8.57 | O=C(CC1CCOCC1)N1CCC(c2ccc(NC(=O)N3CC(c4cccnc4)C3)cc2)CC1 [Example 50, 3-(pyridin-3-yl)-N-{4-[1-(tetrahydro-2H-pyran-4-ylacetyl)piperidin-4-yl]phenyl}azetidine-1-carboxamide]
31 | 29.3 | 8.06 | O=C(CC1CC1)N1CCC(c2ccc(NC(=O)N3CC(c4cccnc4)C3)cc2)CC1 [Example 55, N-{4-[1-(cyclopropylacetyl)piperidin-4-yl]phenyl}-3-(pyridin-3-yl)azetidine-1-carboxamide]
32 | 38.9 | 6.78 | O=C(Nc1ccc(C2CCN(C(=O)[C@@H]3CCCO3)CC2)cc1)N1CC(c2cccnc2)C1 [Example 52, 3-(pyridin-3-yl)-N-(4-{1-[(2S)-tetrahydrofuran-2-ylcarbonyl]piperidin-4-yl}phenyl)azetidine-1-carboxamide]
